Columns and labels:
human CRF receptor I [1] = target: T1, human CRF receptor I (Homo sapiens, UniProt P34998); assay: Binding assay (125I-CRF, membrane fraction); details: 125I-CRF 0.25 nM; membrane fraction of CHO-K1 cells forcedly expressing human CRF receptor I; room temperature, 2 hours
T1 construct: expressed in transfected cells; host or cells: CHO-K1
T1 sequence (P34998 24-415): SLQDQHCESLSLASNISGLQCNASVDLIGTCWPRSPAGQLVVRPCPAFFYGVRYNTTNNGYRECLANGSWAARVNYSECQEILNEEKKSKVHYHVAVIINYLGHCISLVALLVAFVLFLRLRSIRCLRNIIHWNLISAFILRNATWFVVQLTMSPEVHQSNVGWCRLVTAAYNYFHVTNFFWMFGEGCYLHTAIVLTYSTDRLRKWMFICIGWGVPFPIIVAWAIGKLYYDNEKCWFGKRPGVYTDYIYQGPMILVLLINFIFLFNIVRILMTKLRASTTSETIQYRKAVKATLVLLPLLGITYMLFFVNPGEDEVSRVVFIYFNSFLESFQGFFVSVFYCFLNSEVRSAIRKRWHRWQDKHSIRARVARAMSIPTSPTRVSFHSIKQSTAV
Experimental: The forced-expression cell strain of the human CRF receptor I (parent strain is CHO-K1 cell) was cultured until the cell was confluent and collected with a scraper. The collected cells were washed twice with PBS, and were suspended with an ice-colded binding assay buffer (Tris-HCl (50 mM, pH 7.0), EDTA (2 mM, pH 8.0), and MgCl2 (10 mM))). After fractured with a dounce-type homogenizer, the suspended cells were centrifuged at 10,000 g, and a membrane fraction was collected. The collected membrane fraction was resuspended with a little amount of the binding assay buffer, thereafter diluted with the binding assay buffer so as to have a concentration of 1 mg/mL. The obtained membrane fraction was used for a binding assay.
^125I-CRF was diluted with the binding assay buffer so as to have a concentration of 0.5 nM, whereby 50 μL of the diluted ^125I-CRF was added to a siliconized 1.5-mL tube. Next, test drugs diluted at appropriate times, such as DMSO (for general binding) or 100 μM of CRF (for non-specific binding), was added to a […]. Finally, 50 μL of the membrane fraction was added thereto and the reaction was started (final concentration of ^125I-CRF was 0.25 nM). The tube was incubated at room temperature for 2 hours. […] A membrane binding count was measured using a γ counter.
The specific binding count was obtained by subtracting the non-specific count from the measured count.

human CRF receptor I [2] = target: T1, human CRF receptor I; assay: Receptor antagonistic activity (cyclic AMP assay); format: cell-based; details: forced expression cell strain of human CRF receptor I; stimulated with human/rat CRF; 37° C., 15 minutes; read-out: antagonistic activity against CRF IC50 value (accumulated cyclic AMP)
Experimental: The forced expression cell strain of the human CRF receptor I was cultured at 37° C. under 5% carbon dioxide and 95% air by using a Ham's F-12 medium (F-12 nutrient mixture) containing 10% bovine fetal serum and 1% antibiotic substance-antifungal agent. On the previous day before the cyclic AMP was measured, the cells were inoculated into a 96-well plate in an amount of 1×10^4 cell/well. On the measurement day, the cells were washed twice with a Ham's F-12 medium, whereby a solution of Ham's F-12 medium/1 mM 3-isobutyl-1-methylxanthine (assay medium) (178 μL) was added to each well. After the incubation at 37° C. for 10 minutes, test drug solutions (2 μL) in various concentrations were added thereto, or DMSO (2 μL) was added to a CRF group and a blank group. An assay medium (20 μL) containing 10 nM human/rat CRF was added to wells of a compound group and the CRF group. An assay medium (20 μL) containing 0.00001% acetic acid was added to the blank group. Each group was further incubated at 37° C. for 15 minutes. […] The accumulated cyclic AMP amounts were calculated by subtracting mean values of corresponding 2 wells in the blank group from that of 2 wells. The IC50 values were calculated with non-linear regression analysis by defining logarithm concentration of the compound as independent variable and an accumulated cyclic AMP amount as dependent variable.

CCC(CC)c1cc(C)c2nc(-c3ccc(OC)cc3Cl)c(C)n2c1 [Example 7, 2-(2-chloro-4-methoxyphenyl)-6-(1-ethylpropyl)-3,8-dimethylimidazo[1,2-a]pyridine]
IC50 (human CRF receptor I [1]): 0.012 µM | IC50 (human CRF receptor I [2]): 0.041 µM

Reference: patent US20090281120A1, “BICYCLIC HETEROCYCLIC COMPOUND” (ONO PHARMACEUTICAL CO., LTD, priority 2005, published 2009)
